Assay results as given in patent publication US9868935B2, “Composition and method of stem cells for preservation of cardiac tissue” (CRIOESTAMINAL, SAÚDE E TECNOLOGIA, SA., priority 2012, dated 2018).

Test system: CD34+ cells encapsulated in fibrin gel
Assay: Survival of CD34+ cells encapsulated in fibrin gels in hypoxia and serum deprived conditions
Format: cell-based, human
Conditions: LPA-treated
Method: In an embodiment, fibrin gels were formed by crosslinking of fibrinogen in the presence of thrombin (both from Sigma-Aldrich). The fibrinogen solution was prepared by dissolving human fibrinogen in Tris-buffered saline (TBS) (preferably, Sigma-Aldrich), pH 7.4 (20 mg/mL), and then sterilized by filtering through a 0.22 μm syringe filter (Acrodisc, Pall, NY, USA). Fresh thrombin solutions were prepared by dissolving human thrombin in TBS at pH 7.4 at a concentration of 50 U/mL. Fibrin gels (200 μL, unless otherwise stated) were prepared by mixing three different components: fibrinogen (10 mg/mL), CaCl2 (preferably, Merck, NJ, USA) ([…]) and thrombin (0.2 U/mL). This solution was allowed to gel at 37° C. and 100% relative humidity.
Injectable scaffolds are very promising vehicles to deliver stem cells for regenerative medicine since they provide a favorable structural support for cell survival and proliferation (Pedroso, D. C., et al., Improved survival, vascular differentiation and wound healing potential of stem cells co-cultured with endothelial cells. PLoS One, 2011. 6(1): p. e16114; Kraehenbuehl, T. P., R. Langer, and L. S. Ferreira, Three-dimensional biomaterials for the study of human pluripotent stem cells. Nat Methods, 2011. 8(9): p. 731-6; Nakamuta, J. S., et al., Cell therapy attenuates cardiac dysfunction post myocardial infarction: effect of timing, routes of injection and a fibrin scaffold. PLoS One, 2009. 4(6): p. e6005.). Several studies have shown that cells transplanted with scaffolds in the cardiac setting improved cell survival, induced angiogenesis and preserved cardiac function after infarction (Nakamuta, J. S., et al., Cell therapy attenuates cardiac dysfunction post myocardial infarction: effect of timing, routes of injection and a fibrin scaffold. PLoS One, 2009. 4(6): p. e6005; Christman, K. L., et al., Fibrin glue alone and skeletal myoblasts in a fibrin scaffold preserve cardiac function after myocardial infarction. Tissue Eng, 2004. 10(3-4): p. 403-9; Kraehenbuehl, T. P., et al., Human embryonic stem cell-derived microvascular grafts for cardiac tissue preservation after myocardial infarction. Biomaterials, 2011. 32(4): p. 1102-9; Kutschka, I., et al., Collagen matrices enhance survival of transplanted cardiomyoblasts and contribute to functional improvement of ischemic rat hearts. Circulation, 2006. 114(1 Suppl): p. I167-73). […] Cell viability was evaluated by flow cytometry using Annexin V/propidium iodide (PI) staining.

lysophosphatidic acid [LPA]
viable cells (encapsulated in fibrin gel, hypoxia day 1): 69.0±0.7% | viable cells (encapsulated in fibrin gel, hypoxia day 3): 51.1±0.8% | viable cells (non-encapsulated, hypoxia day 1): 76.7±1.5% | viable cells (non-encapsulated, hypoxia day 3): 37.2±6.6%
